Values joined by “and” are separate entries in the source; they are usually repeats but may differ in a detail not shown here. Equal entries are not always repeated. Numbers after ± are expanded uncertainties.
Settings: Gas

## O=C(C(F)(F)C(F)(F)F)C(F)(C(F)(F)F)C(F)(F)F [dodecafluoro-2-methylpentan-3-one]
473.94 K, 607 kPa, transient hot wire
  thermal conductivity: 0.02517 ± 0.0015 W/m/K
473.94 K, 608 kPa, transient hot wire
  thermal conductivity: 0.02532 ± 0.0016 W/m/K
473.94 K, 1476 kPa, transient hot wire
  thermal conductivity: 0.02574 ± 0.00085 W/m/K
473.96 K, 1476 kPa, transient hot wire
  thermal conductivity: 0.02582 ± 0.00085 W/m/K
473.98 K, 426 kPa, transient hot wire
  thermal conductivity: 0.02562 ± 0.0016 W/m/K
473.99 K, 423 kPa, transient hot wire
  thermal conductivity: 0.02558 ± 0.0016 W/m/K
474.04 K, 842 kPa, transient hot wire
  thermal conductivity: 0.02513 ± 0.0015 W/m/K and 0.02512 ± 0.0015 W/m/K
474.09 K, 607 kPa, transient hot wire
  thermal conductivity: 0.02539 ± 0.0016 W/m/K and 0.02526 ± 0.0015 W/m/K
474.16 K, 420 kPa, transient hot wire
  thermal conductivity: 0.02565 ± 0.0016 W/m/K
474.16 K, 421 kPa, transient hot wire
  thermal conductivity: 0.02567 ± 0.0016 W/m/K
474.19 K, 842 kPa, transient hot wire
  thermal conductivity: 0.02519 ± 0.0015 W/m/K
474.2 K, 841 kPa, transient hot wire
  thermal conductivity: 0.0252 ± 0.0015 W/m/K
474.27 K, 606 kPa, transient hot wire
  thermal conductivity: 0.02536 ± 0.0016 W/m/K
474.28 K, 606 kPa, transient hot wire
  thermal conductivity: 0.02535 ± 0.0016 W/m/K
474.31 K, 419 kPa, transient hot wire
  thermal conductivity: 0.02566 ± 0.0016 W/m/K
474.32 K, 419 kPa, transient hot wire
  thermal conductivity: 0.0257 ± 0.0016 W/m/K
499.37 K, 646 kPa, hot wire
  thermal conductivity: 0.02778 ± 0.0013 W/m/K
499.37 K, 647 kPa, hot wire
  thermal conductivity: 0.02768 ± 0.0013 W/m/K
499.4 K, 421 kPa, hot wire
  thermal conductivity: 0.02708 ± 0.0013 W/m/K
499.41 K, 221 kPa, hot wire
  thermal conductivity: 0.02654 ± 0.0013 W/m/K
499.41 K, 422 kPa, hot wire
  thermal conductivity: 0.0269 ± 0.0013 W/m/K
499.42 K, 220 kPa, hot wire
  thermal conductivity: 0.02629 ± 0.0012 W/m/K
499.45 K, 60 kPa, hot wire
  thermal conductivity: 0.02624 ± 0.0012 W/m/K
499.45 K, 645 kPa, hot wire
  thermal conductivity: 0.02749 ± 0.0013 W/m/K and 0.02782 ± 0.0013 W/m/K
499.47 K, 60 kPa, hot wire
  thermal conductivity: 0.02576 ± 0.0012 W/m/K
499.49 K, 419 kPa, hot wire
  thermal conductivity: 0.0267 ± 0.0013 W/m/K
499.5 K, 419 kPa, hot wire
  thermal conductivity: 0.02667 ± 0.0013 W/m/K
499.5 K, 50295 kPa, transient hot wire
  thermal conductivity: 0.06261 ± 0.0016 W/m/K
499.51 K, 219 kPa, hot wire
  thermal conductivity: 0.02641 ± 0.0012 W/m/K
499.51 K, 220 kPa, hot wire
  thermal conductivity: 0.02635 ± 0.0012 W/m/K
499.52 K, 4853 kPa, transient hot wire
  thermal conductivity: 0.03589 ± 0.00085 W/m/K and 0.03595 ± 0.00086 W/m/K
499.52 K, 50304 kPa, transient hot wire
  thermal conductivity: 0.06215 ± 0.0016 W/m/K
499.53 K, 644 kPa, hot wire
  thermal conductivity: 0.02758 ± 0.0013 W/m/K
499.53 K, 2128 kPa, transient hot wire
  thermal conductivity: 0.02828 ± 0.0017 W/m/K
499.54 K, 61 kPa, hot wire
  thermal conductivity: 0.02593 ± 0.0012 W/m/K
499.55 K, 61 kPa, hot wire
  thermal conductivity: 0.02598 ± 0.0012 W/m/K
499.55 K, 644 kPa, hot wire
  thermal conductivity: 0.02734 ± 0.0013 W/m/K
499.56 K, 419 kPa, hot wire
  thermal conductivity: 0.02715 ± 0.0013 W/m/K
499.56 K, 50302 kPa, transient hot wire
  thermal conductivity: 0.06239 ± 0.0016 W/m/K
499.57 K, 419 kPa, hot wire
  thermal conductivity: 0.02691 ± 0.0013 W/m/K
499.57 K, 4325 kPa, transient hot wire
  thermal conductivity: 0.0351 ± 0.0022 W/m/K
499.57 K, 50305 kPa, transient hot wire
  thermal conductivity: 0.06236 ± 0.0016 W/m/K
499.58 K, 3937 kPa, transient hot wire
  thermal conductivity: 0.03408 ± 0.0021 W/m/K
499.58 K, 4853 kPa, transient hot wire
  thermal conductivity: 0.03611 ± 0.00086 W/m/K
499.59 K, 50256 kPa, transient hot wire
  thermal conductivity: 0.06271 ± 0.0016 W/m/K
499.59 K, 50258 kPa, transient hot wire
  thermal conductivity: 0.06238 ± 0.0016 W/m/K
499.6 K, 218 kPa, hot wire
  thermal conductivity: 0.02625 ± 0.0012 W/m/K
499.6 K, 219 kPa, hot wire
  thermal conductivity: 0.0263 ± 0.0012 W/m/K
499.6 K, 3614 kPa, transient hot wire
  thermal conductivity: 0.03311 ± 0.002 W/m/K
499.6 K, 4853 kPa, transient hot wire
  thermal conductivity: 0.036 ± 0.00086 W/m/K
499.61 K, 35693 kPa, transient hot wire
  thermal conductivity: 0.05695 ± 0.0014 W/m/K
499.61 K, 50280 kPa, transient hot wire
  thermal conductivity: 0.06265 ± 0.0016 W/m/K
499.62 K, 61 kPa, hot wire
  thermal conductivity: 0.02606 ± 0.0012 W/m/K and 0.02605 ± 0.0012 W/m/K
499.62 K, 5588 kPa, transient hot wire
  thermal conductivity: 0.03699 ± 0.00088 W/m/K
499.62 K, 35669 kPa, transient hot wire
  thermal conductivity: 0.057 ± 0.0014 W/m/K
499.62 K, 35696 kPa, transient hot wire
  thermal conductivity: 0.05672 ± 0.0014 W/m/K
499.63 K, 643 kPa, hot wire
  thermal conductivity: 0.02745 ± 0.0013 W/m/K
499.63 K, 3615 kPa, transient hot wire
  thermal conductivity: 0.03333 ± 0.0021 W/m/K
499.63 K, 4324 kPa, transient hot wire
  thermal conductivity: 0.03525 ± 0.0022 W/m/K
499.63 K, 5589 kPa, transient hot wire
  thermal conductivity: 0.03717 ± 0.00088 W/m/K
499.63 K, 35672 kPa, transient hot wire
  thermal conductivity: 0.05682 ± 0.0014 W/m/K
499.63 K, 50307 kPa, transient hot wire
  thermal conductivity: 0.06251 ± 0.0016 W/m/K
499.64 K, 644 kPa, hot wire
  thermal conductivity: 0.02725 ± 0.0013 W/m/K
499.64 K, 1595 kPa, transient hot wire
  thermal conductivity: 0.0274 ± 0.0009 W/m/K
499.64 K, 3289 kPa, transient hot wire
  thermal conductivity: 0.03215 ± 0.002 W/m/K
499.64 K, 4325 kPa, transient hot wire
  thermal conductivity: 0.03518 ± 0.0022 W/m/K
499.64 K, 50259 kPa, transient hot wire
  thermal conductivity: 0.06245 ± 0.0016 W/m/K
499.65 K, 419 kPa, hot wire
  thermal conductivity: 0.02725 ± 0.0013 W/m/K
499.65 K, 1595 kPa, transient hot wire
  thermal conductivity: 0.02712 ± 0.00089 W/m/K
499.65 K, 2128 kPa, transient hot wire
  thermal conductivity: 0.02826 ± 0.0017 W/m/K and 0.0282 ± 0.0017 W/m/K
499.65 K, 4853 kPa, transient hot wire
  thermal conductivity: 0.03633 ± 0.00086 W/m/K
499.65 K, 4854 kPa, transient hot wire
  thermal conductivity: 0.03629 ± 0.00086 W/m/K
499.66 K, 418 kPa, hot wire
  thermal conductivity: 0.02719 ± 0.0013 W/m/K
499.66 K, 3937 kPa, transient hot wire
  thermal conductivity: 0.03435 ± 0.0021 W/m/K and 0.03413 ± 0.0021 W/m/K
499.67 K, 2953 kPa, transient hot wire
  thermal conductivity: 0.0308 ± 0.0019 W/m/K
499.67 K, 35694 kPa, transient hot wire
  thermal conductivity: 0.05685 ± 0.0014 W/m/K
499.68 K, 50260 kPa, transient hot wire
  thermal conductivity: 0.06229 ± 0.0016 W/m/K
499.69 K, 218 kPa, hot wire
  thermal conductivity: 0.02623 ± 0.0012 W/m/K and 0.0264 ± 0.0012 W/m/K
499.69 K, 5590 kPa, transient hot wire
  thermal conductivity: 0.03719 ± 0.00089 W/m/K
499.69 K, 35675 kPa, transient hot wire
  thermal conductivity: 0.05669 ± 0.0014 W/m/K
499.69 K, 35681 kPa, transient hot wire
  thermal conductivity: 0.05715 ± 0.0014 W/m/K
499.69 K, 50252 kPa, transient hot wire
  thermal conductivity: 0.06264 ± 0.0016 W/m/K
499.7 K, 60 kPa, hot wire
  thermal conductivity: 0.02639 ± 0.0012 W/m/K and 0.0261 ± 0.0012 W/m/K
499.7 K, 2953 kPa, transient hot wire
  thermal conductivity: 0.03112 ± 0.0019 W/m/K

Source: the NIST ThermoML archive (doi:10.1021/acs.jced.8b00132)
